Publication PMC5029629, “β-casein nanovehicles for oral delivery of chemotherapeutic drug combinations overcoming P-glycoprotein-mediated multidrug resistance in human gastric cancer cells” (Oncotarget, 2016)

Target: T1, β-casein (β-CN) (Bos taurus, UniProt P02666)
T1 construct: gene CSN2
T1 sequence (P02666 16-224): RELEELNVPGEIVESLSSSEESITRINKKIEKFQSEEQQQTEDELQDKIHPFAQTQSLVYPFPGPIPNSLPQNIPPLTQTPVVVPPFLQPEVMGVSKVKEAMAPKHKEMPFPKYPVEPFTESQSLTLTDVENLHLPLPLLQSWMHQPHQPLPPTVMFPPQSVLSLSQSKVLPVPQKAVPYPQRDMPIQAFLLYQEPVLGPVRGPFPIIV
Test: Trp143 fluorescence quenching, modified Stern-Volmer fit (combined static and dynamic)
Assay type: binding
Conditions: PBS pH 7.0, 0.1 M ionic strength, 2.5% DMSO, 23 °C, 1 mg/ml protein (micelles); KSV called association constant but also defined as Stern-Volmer overall quenching constant; ligand poorly soluble
Source text: Trp143 fluorescence quenching, modified Stern-Volmer fit (combined static and dynamic) on β-casein (β-CN)

KSV ± SE (10^4 M^-1)	SMILES
0.96 ± 0.07 10^4 M^-1	CC(=O)O[C@H]1C(=O)[C@@]2(C)[C@H]([C@H](OC(=O)c3ccccc3)[C@]3(O)C[C@H](OC(=O)[C@H](O)[C@@H](NC(=O)c4ccccc4)c4ccccc4)C(C)=C1C3(C)C)[C@]1(OC(C)=O)CO[C@@H]1C[C@@H]2O [Paclitaxel]
1.80 ± 0.16 10^4 M^-1	COc1cc2c(cc1OC)CN(CCc1ccc(NC(=O)c3cc(OC)c(OC)cc3NC(=O)c3cnc4ccccc4c3)cc1)CC2 [Tariquidar]
